Data set [1] is filed under the species Rattus norvegicus. The data set can be described thus: The release rate of the free drug from the substrate in rat liver lysosomal preparation by rat liver lysosomal assay. It counts as ADME.
A short description of data set [2]: The release rate of the free drug from the substrate in presence of Cathepsin B by Cathepsin B assay. It counts as ADME.
Data set [3] can be described thus: The release rate of the free drug from the substrate in human plasma by human plasma stability assay; Not hydrolyzed. It is filed as ADME, cell-free.
Data set [4] is described as follows: The release rate of the free drug from the substrate in human plasma by human plasma stability assay. It is filed as ADME, cell-free.

For `COc1cccc2c1C(=O)c1c(O)c3c(c(O)c1C2=O)C[C@@](O)(C(=O)CO)C[C@@H]3OC1CC(NC(=O)OCc2ccc(NC(=O)[C@H](CCCCN)NC(=O)[C@H](Cc3ccccc3)NC(=O)OCc3ccccc3)cc2)C(O)C(C)O1` (some centres not stated), the T1/2 is 29 min in data set [1], 8 min in data set [2] and “Not hydrolyzed” in data set [3].
As to `COC12C(COC(N)=O)C3=C(C(=O)C(C)=C(N)C3=O)N1CC1C2N1C(=O)OCc1ccc(NC(=O)[C@H](CCCCN)NC(=O)[C@H](Cc2ccccc2)NC(=O)OC(C)(C)C)cc1` (some centres not stated), the T1/2 in data set [1] worked out at 24 min; in data set [2] it was 10 min; in data set [4], 149 h.
As for `CC(=O)O[C@H]1C(=O)[C@@]2(C)C([C@H](OC(=O)c3ccccc3)[C@]3(O)C[C@H](OC(=O)[C@H](OC(=O)OCc4ccc(NC(=O)[C@H](CCCCN)NC(=O)[C@H](Cc5ccccc5)NC(=O)OCc5ccccc5)cc4)[C@@H](NC(=O)c4ccccc4)c4ccccc4)C(C)=C1C3(C)C)[C@]1(OC(C)=O)COC1C[C@@H]2O` (some centres not stated), the T1/2 in data set [1] was 19 min; in data set [2] it was 540 min; in data set [3], “Not hydrolyzed”.
For `CC(=O)O[C@H]1C(=O)[C@@]2(C)C([C@H](OC(=O)c3ccccc3)[C@]3(O)C[C@H](OC(=O)[C@H](O)[C@@H](NC(=O)c4ccccc4)c4ccccc4)C(C)=C1C3(C)C)[C@]1(OC(C)=O)COC1C[C@@H]2OC(=O)OCc1ccc(NC(=O)[C@H](CCCCN)NC(=O)[C@H](Cc2ccccc2)NC(=O)OC(C)(C)C)cc1` (some centres not stated) the same measures were 66 min, 40 min and “Not hydrolyzed”.

The values are drawn from ChEMBL document CHEMBL1130689, “Cathepsin B-sensitive dipeptide prodrugs. 2. Models of anticancer drugs paclitaxel (Taxol), mitomycin C and doxorubicin” (Bioorg Med Chem Lett, 1998).
